Converted amounts (≈) assume the structure as drawn. Read-outs that look alike come from different tables or passages of the source.
Key:
[1] = system: colon KM 20L2; assay: Cancer cell growth inhibition, colon KM 20L2; assay type: cell-based, human; settings: colon KM 20L2; for IC50: Homo sapiens, read-out: Cancer Cell Line Results ED50
Source text: (§1) Evaluation of demethyloxyaaptamine (3), aaptamine (1), isoaaptamine (2) and hystatin 1 (11) against the Arizona State University Cancer Research Institute's human tumor cell line panel (Table 1) and the NCI 60-cell line human tumor screen were undertaken. (Boyd, M. R., Cancer: Principles and Practices of Oncology Updates; DeVita, et al., Eds; Lippincott: Philadelphia, 1989, Vol. 10, No. 3, pp. 1-12; Boyd, et al., Drug Development Research 1995, 34, 91-109; Boyd, M. R., et al. Cytotoxic Anticancer Drugs: Models and Concepts for Drug Discovery and Development; Valeriote, A., et al., Eds, Kluwer Academic Publishers: Amsterdam, 1992, pp. 11-34.)
(§2) Biology The cancer cell growth inhibitory properties were examined using the murine P388 lymphocytic leukemia cell line and a selection of human cancer cell lines.
(§3) All of the synthetic products were evaluated against a minipanel of human cancer cell lines, the murine P388 lymphocytic leukemia cell line and a selection of microorganisms.

[2] = system: renal A498; assay: Cancer cell growth inhibition, renal A498; assay type: cell-based, human; settings: Table 1
Source text: (§4) (Boyd, M. R., Cancer: Principles and Practices of Oncology Updates; […], et al., Eds; Lippincott: Philadelphia, 1989, Vol. 10, No. 3, pp. 1-12; Boyd, et al., Drug Development Research 1995, 34, 91-109; Boyd, M. R., et al. Cytotoxic Anticancer Drugs: Models and Concepts for Drug Discovery and Development; Valeriote, A., et al., Eds, Kluwer Academic Publishers: Amsterdam, 1992, pp. 11-34.)

[3] = system: murine P388 lymphocytic leukemia cell line; assay: Cancer cell growth inhibition, murine P388 lymphocytic leukemia cell line; assay type: cell-based; settings: for IC50: Mus musculus, read-out: Cancer Cell Line Results ED50
Source text: as §1, §2, §3

[4] = system: melanoma SK-MEL-5; assay: Cancer cell growth inhibition, melanoma SK-MEL-5; assay type: cell-based, human; settings: Table 1
Source text: as §4

[5] = system: CNS SF-295; assay: Cancer cell growth inhibition, CNS SF-295; assay type: cell-based, human; settings: Table 1
Source text: as §4

[6] = system: ovary OVCAR-3; assay: Cancer cell growth inhibition, ovary OVCAR-3; assay type: cell-based, human; settings: Table 1
Source text: as §4

[7] = system: lung NCI-H460; assay: Cancer cell growth inhibition, lung NCI-H460; assay type: cell-based, human; settings: lung NCI-H460; for IC50: Homo sapiens, read-out: Cancer Cell Line Results ED50
Source text: as §1, §2, §3

[8] = system: pancreas BXPC-3; assay: Cancer cell growth inhibition, pancreas BXPC-3; assay type: cell-based, human; settings: pancreas BXPC-3
Experimental: as §2, §3

[9] = system: Mycobacterium tuberculosis H37Rv; assay: Microplate Alamar Blue Assay, Mycobacterium tuberculosis; assay type: cell-based; settings: 6.25 μg/ml
[10] = system: Escherichia coli; assay: Broth microdilution susceptibility assay, Escherichia coli; assay type: cell-based
[11] = system: Neisseria gonorrhoeae; assay: Broth microdilution susceptibility assay, Neisseria gonorrhoeae; assay type: cell-based
[12] = system: prostrate DU-145; assay: Cancer cell growth inhibition, prostate DU-145; assay type: cell-based, human
Experimental: as §2, §3

[13] = system: Stenotrophomonas maltophilia; assay: Broth microdilution susceptibility assay, Stenotrophomonas maltophilia; assay type: cell-based
[14] = system: Candida albicans; assay: Broth microdilution susceptibility assay, Candida albicans; assay type: cell-based
[15] = molecular target: T1, PKC alpha (Homo sapiens, UniProt P17252); assay: Inhibition of [3H]phorbol 12,13-dibutyrate binding to PKC alpha; settings: 30 μM compound; read-out: inhibition of [3H]phorbol 12,13-dibutyrate binding to PKC alpha
Experimental: Isoaaptamine (2) and derivatives 4, 5, 7, 8, and 14-18 were evaluated as ligands for PKC, based on the initial report of activity for isoaaptamine (Patil, et al., PCT Int. Appl. WO 95/0584 March 1995). Activity was measured at 30 μM compound using inhibition of [^3H-20]phorbol 12,13-dibutyrate binding to PKC alpha as described previously (Kazanietz, M. G., et al., Molecular Pharmacol., 1993, 44, 298). Assays were carried out with triplicate measurements in either single or triplicate experiments, depending on the compound.
Compounds 4, 5, 9a-c, and 10a-d were evaluated as ligands for PKC, based on the initial report of activity for isoaaptamine. Activity was measured at 30 μM compound using inhibition of [20-^3H]phorbol 12,13-dibutyrate binding to PKC alpha as described previously (Kazanietz, M. G., et al., Characterization of Ligand and Substrate Specificity for the Calcium-Dependent and Calcium-Independent Protein Kinase C Isoenzymes, Molecular Pharmacol. 1993, 44, 298-307). Assays were carried out with triplicate measurement in either single or triplicate experiments, depending on the compound. Inhibition by 9a and 9b was 6.4% and 9.2%, respectively. That by 10a, 10b, and 10d was 11.8%, 12.6%, and 16.0%, respectively. That by other derivatives was 5% or less. We conclude that these compounds show only very weak activity as ligands for PKC.

[16] = molecular target: T1, PKC alpha; assay: Inhibition of PKC catalytic activity (peptide substrate phosphorylation); assay type: biochemical
Source text: We further evaluated the ability of the derivatives to inhibit PKC catalytic activity. […] Inhibition by 10c was 19.5±7.6% and inhibition by 4, 5, and 9a, b, c was 6% or less (all values are mean±SEM, three experiments). […] In both cases, the inhibition curves were steeper than predicted for a competitive inhibitor, consistent with a complicated mechanism of action (Hill coefficients for 10a and 10b of 1.5±0.1 and 2.0±0.5, respectively).

[17] = system: Streptococcus pneumoniae; assay: Broth microdilution susceptibility assay, Streptococcus pneumoniae; assay type: cell-based
[18] = system: Enterococcus faecalis; assay: Broth microdilution susceptibility assay, Enterococcus faecalis; assay type: cell-based
[19] = system: breast MCF-7; assay: Cancer cell growth inhibition, breast MCF-7; assay type: cell-based, human; settings: breast MCF-7
Experimental: as §2, §3

[20] = system: Cryptococcus neoformans; assay: Broth microdilution susceptibility assay, Cryptococcus neoformans; assay type: cell-based
[21] = system: Micrococcus luteus; assay: Broth microdilution susceptibility assay, Micrococcus luteus; assay type: cell-based
[22] = system: Enterobacter cloacae; assay: Broth microdilution susceptibility assay, Enterobacter cloacae; assay type: cell-based
[23] = system: Staphylococcus aureus; assay: Broth microdilution susceptibility assay, Staphylococcus aureus; assay type: cell-based
[24] = system: CNS SF-268; assay: Cancer cell growth inhibition, CNS SF-268; assay type: cell-based, human; settings: CNS SF-268
Experimental: as §2, §3

[25] = Stability of the substance (observation); assay type: physicochemical
Source text: When newly isolated, isoaaptamine (2) appears as a yellow colored powder that rapidly changes to dark green and finally brown or black, presumably due to air oxidation. […] For that purpose, isoaaptamine (2) was first phosphorylated with dibenzylphosphate (Pettit, G. R. et al., Anti-Cancer Drug Design 2000, 15, 203-216; Silverberg, L. J., Tetrahedron Lett. 1996, 37, 771-774). […] Scheme 2 below illustrates the aforementioned synthesis method. [drawing 17] Biology

[26] = Homo sapiens, Table 5, read-out: Cancer Cell Line Results ED50

COc1cc2ccnc3c2c(c1OC)NC=C3 [Compound 1, aaptamine]
IC50 ([1]; Table 1): 3.6 µg/mL (≈ 15.8 µM)
Cancer Cell Line Results ED50 [2]: 3.20 µg/mL
IC50 ([3]; Table 1, leukemia murine P388): 3.6 µg/mL (≈ 15.8 µM)
Cancer Cell Line Results ED50 [4]: 4.30 µg/mL
Cancer Cell Line Results ED50 [5]: 4.10 µg/mL
Cancer Cell Line Results ED50 [6]: 4.90 µg/mL
IC50 ([7]; Table 1): 3.2 µg/mL (≈ 14 µM)

COC1=Cc2ccnc3ccnc(c23)C1=O [Compound 3, 9-demethyloxyaaptamine]
IC50 ([1]; Table 1): 2.1 µg/mL (≈ 9.9 µM)
Cancer Cell Line Results ED50 [2]: 4.20 µg/mL
IC50 ([3]; Table 1, leukemia murine P388): 0.31 µg/mL (≈ 1.46 µM)
P388 ED50 ([3]; murine P388): 0.31 µg/mL
Cancer Cell Line Results ED50 [4]: 1.00 µg/mL
Cancer Cell Line Results ED50 [5]: 2.80 µg/mL
Cancer Cell Line Results ED50 [6]: 0.39 µg/mL
IC50 ([7]; Table 1): 2.3 µg/mL (≈ 10.8 µM)

COc1ccc(CN2C=Cc3cc(OC)c(OC)c4c3c2cc[n+]4Cc2ccc(OC)cc2)cc1.[Br-] [Compound 10b, 8,9-Dimethoxy-1,4-bis-(4-methoxybenzyl)-4H-benzo-[de][1,6]naphthyridin-1-ium bromide]
IC50 ([1]; Table 5): 0.13 µg/mL
IC50 [8, 26]: 0.11 µg/mL
inhibition at 6.25 µg/mL [9]: 97%
Range of minimum inhibitory concentration ([10]; Table 6): * (no inhibition at 64 μg/mL)
Range of minimum inhibitory concentration ([11]; Table 6): 4 µg/mL
IC50 ([12]; Homo sapiens, DU-145, Table 5, prostate DRU-145, read-out: Cancer Cell Line Results ED50): 0.1 µg/mL
Range of minimum inhibitory concentration ([13]; Table 6): * (no inhibition at 64 μg/mL)
Range of minimum inhibitory concentration ([14]; Table 6): * (no inhibition at 64 μg/mL)
inhibition at 30 µM [15]: 12.6%
IC50 ([3]; Table 5, leukemia P388): 1.3 µg/mL
Hill coefficient of PKC inhibition curve [16]: 2.0±0.5
inhibition at 30 µM ([16]; 30 μM compound, 1 μM phorbol 12-myristate 13-acetate, 100 μg/ml phospholipid, mean±SEM, three experiments, read-out: percent inhibition of PKC catalytic activity): 84.6 ± 1.1%
IC50 ([16]; complete dose response curves, mean±SEM, 3 experiments, read-out: ID50 for inhibition of PKC catalytic activity): 7.4 ± 1.2 µM
Range of minimum inhibitory concentration ([17]; Table 6): 16 to 32 µg/mL
Range of minimum inhibitory concentration ([18]; Table 6): 16 to 32 µg/mL
IC50 ([19]; Homo sapiens, MCF7, Table 5, read-out: Cancer Cell Line Results ED50): 0.39 µg/mL
IC50 ([7]; Table 5): 0.33 µg/mL
Range of minimum inhibitory concentration ([20]; Table 6): 32 to 64 µg/mL
Range of minimum inhibitory concentration ([21]; Table 6): <0.5 µg/mL
Range of minimum inhibitory concentration ([22]; Table 6): * (no inhibition at 64 μg/mL)
Range of minimum inhibitory concentration ([23]; Table 6): 4 µg/mL
IC50 [24, 26]: 0.27 µg/mL

Disodium isoaaptamine 9-O-phosphate [Compound 11]
Cancer Cell Line Results ED50 ([1]; Table 1): >10 µg/mL
Cancer cell growth inhibitory ED50 ([1]; Table 3): 0.88 µg/mL
Cancer cell growth inhibitory ED50 ([8]; Table 3): 0.74 µg/mL
Range of minimum inhibitory concentration ([10]; Table 2): * (no inhibition at 64 ug/ml)
Range of minimum inhibitory concentration ([11]; Table 2): <0.5 µg/mL
stability [25]: more stable
Cancer cell growth inhibitory ED50 ([12]; Table 3, prostrate DU-145): 0.52 µg/mL
Range of minimum inhibitory concentration ([13]; Table 2): * (no inhibition at 64 ug/ml)
Range of minimum inhibitory concentration ([14]; Table 2): * (no inhibition at 64 ug/ml)
Cancer Cell Line Results ED50 ([3]; Table 1, leukemia murine P388): 3.0 µg/mL
Cancer cell growth inhibitory ED50 ([3]; Table 3, leukemia P-388): 0.23 µg/mL
Range of minimum inhibitory concentration ([17]; Table 2): 16 to 32 µg/mL
Range of minimum inhibitory concentration ([18]; Table 2): * (no inhibition at 64 ug/ml)
Cancer cell growth inhibitory ED50 ([19]; Table 3): 2.2 µg/mL
Cancer Cell Line Results ED50 ([7]; Table 1): >10 µg/mL
Cancer cell growth inhibitory ED50 ([7]; Table 3): 1.9 µg/mL
Range of minimum inhibitory concentration ([20]; Table 2): * (no inhibition at 64 ug/ml)
Range of minimum inhibitory concentration ([21]; Table 2): * (no inhibition at 64 ug/ml)
Range of minimum inhibitory concentration ([22]; Table 2): * (no inhibition at 64 ug/ml)
Range of minimum inhibitory concentration ([23]; Table 2): 64 µg/mL
Cancer cell growth inhibitory ED50 ([24]; Table 3): 0.28 µg/mL

Reference: patent US20050187240A1, “Aaptamine and isoaaptamine and structural modifications thereof” (The Arizona Board of Regents, Acting for and on behalf of …, priority 2004, published 2005)
